# Test results as given in patent US20250049765A1, “BICYCLO [3.2.0] HEPTANE BIS(AMIDE) RXFP1 AGONISTS” (BRISTOL-MYERS SQUIBB COMPANY, priority 2021, published 2025).
# pEC50: −log10 of the molar value.
# Legend:
# human RXFP1 = human RXFP1 (Homo sapiens (Human), UniProt Q9HBX9); assay: hRXFP1 HEK293 cAMP assay; assay type: cell-based; conditions: HEK293 cells stably expressing human RXFP1; 30 min at room temperature; HTRF cAMP
# Protocol: RXFP1 Cyclic Adenosine Monophosphate (CAMP) Assays. Human embryonic kidney cells 293 (HEK293) cells and HEK293 cells stably expressing human RXFP1, were cultured in MEM medium supplemented with 10% qualified FBS, and 300 μg/ml hygromycin (Life Technologies). Cells were dissociated and suspended in assay buffer. The assay buffer was HBSS buffer (with calcium and magnesium) containing 20 mM HEPES, 0.05% BSA, and 0.5 mM IBMX. Cells (3000 cells per well, except 1500 cell per well for HEK293 cells stably expressing human RXFP1) were added to 384-well Proxiplates (Perkin-Elmer). Cells were immediately treated with test compounds in DMSO (2% final) at final concentrations in the range of 0.010 nM to 50 μM. Cells were incubated for 30 min at room temperature. The level of intracellular cAMP was determined using the HTRF HiRange CAMP assay reagent kit (Cisbio) according to manufacturer's instructions. Solutions of cryptate conjugated anti-cAMP and d2 fluorophore-labelled cAMP were made in a supplied lysis buffer separately. Upon completion of the reaction, the cells were lysed with equal volume of the d2-cAMP solution and anti-cAMP solution. After a 1 h room temperature incubation, time-resolved fluorescence intensity was measured using the Envision (Perkin-Elmer) at 400 nm excitation and dual emission at 590 nm and 665 nm. A calibration curve was constructed with an external cAMP standard at concentrations ranging from 2.7 μM to 0.1 μM by plotting the fluorescent intensity ratio from 665 nm emission to the intensity from the 590 nm emission against cAMP concentrations. The potency and activity of a compound to […] cAMP production was then determined by fitting to a 4-parametric logistic equation from a plot of cAMP level versus compound concentrations.
# The examples disclosed below were tested in the human RXFP1 (hRXFP1) HEK293 cAMP assay described above and found to have agonist activity. Table A lists EC50 values in the hRXFP1 HEK293 cAMP assay measured for the examples.
# [1] = intravenous (IV) formulation; cited from earlier work
# Sequence of human RXFP1 (Q9HBX9 whole entry): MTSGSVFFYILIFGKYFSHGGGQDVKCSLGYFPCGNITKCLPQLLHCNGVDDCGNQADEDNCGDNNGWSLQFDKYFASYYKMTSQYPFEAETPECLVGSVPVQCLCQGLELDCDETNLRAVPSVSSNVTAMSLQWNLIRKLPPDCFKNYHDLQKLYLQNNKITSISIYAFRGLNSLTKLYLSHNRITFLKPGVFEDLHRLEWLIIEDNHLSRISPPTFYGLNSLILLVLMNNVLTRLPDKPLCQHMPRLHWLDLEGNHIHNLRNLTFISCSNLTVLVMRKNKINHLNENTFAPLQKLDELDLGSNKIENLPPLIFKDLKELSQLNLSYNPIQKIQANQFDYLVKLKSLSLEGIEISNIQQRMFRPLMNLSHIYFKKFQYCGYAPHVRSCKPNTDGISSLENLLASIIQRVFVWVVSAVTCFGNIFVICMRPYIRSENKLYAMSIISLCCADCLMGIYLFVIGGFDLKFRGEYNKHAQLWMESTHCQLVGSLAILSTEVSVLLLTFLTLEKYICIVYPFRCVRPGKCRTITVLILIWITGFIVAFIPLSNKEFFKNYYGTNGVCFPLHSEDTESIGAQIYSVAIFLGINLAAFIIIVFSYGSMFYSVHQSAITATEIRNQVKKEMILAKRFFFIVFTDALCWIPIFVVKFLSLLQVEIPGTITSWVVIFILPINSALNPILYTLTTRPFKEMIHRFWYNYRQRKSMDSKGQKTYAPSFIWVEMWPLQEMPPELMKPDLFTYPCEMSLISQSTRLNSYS
Molecule,pEC50 (human RXFP1),first-phase pharmacokinetic half-life [1] [min]
"COc1ccc(-c2cc(C(=O)O)ccc2F)cc1C(=O)N[C@H]1[C@@H]2CCC[C@@H]2[C@H]1C(=O)Nc1ccc(F)c(C(F)(F)F)c1 [Example 1, 6-fluoro-3′-(((1S,5R,6S,7R)-7-((4-fluoro-3-(trifluoromethyl)phenyl)carbamoyl)bicyclo[3.2.0]heptan-6-yl)carbamoyl)-4′-methoxy-[1,1′-biphenyl]-3-carboxylic acid]",5.92,–
"COc1ccc(C#CCO)cc1C(=O)N[C@H]1[C@@H]2CCC[C@@H]2[C@H]1C(=O)Nc1ccc(F)c(C(F)(F)F)c1 [Example 2, (1R,5S,6R,7S)—N-(4-fluoro-3-(trifluoromethyl)phenyl)-7-(5-(3-hydroxyprop-1-yn-1-yl)-2-methoxybenzamido) bicyclo[3.2.0]heptane-6-carboxamide]",6.08,–
"COc1ccc(C2=NOC3CC(O)CC23)cc1C(=O)NC1C2CCCC2C1C(=O)Nc1ccc(F)c(C(F)(F)F)c1 [Example 3, (1R,5S,6R,7S)-N-(4-fluoro-3-(tri-fluoromethyl)-phenyl)-7-(5-(5-hydroxy-3a,5,6,6a-tetrahydro-4H-cyclopenta[d]isox-azol-3-yl)-2-meth-oxybenzamido)-bicyclo[3.2.0] heptane-6-carbox-amide]",6.04,–
"COc1ccc(C2=NOC(CO)C2)cc1C(=O)NC1C2CCCC2C1C(=O)Nc1ccc(F)c(C(F)(F)F)c1 [Example 5, (1R,5S,6R,7S)-N-(4-fluoro-3-(tri-fluoromethyl)-phenyl)-7-(5-(5-(hydroxymethyl)-4,5-dihydroisox-azol-3-yl)-2-meth-oxybenzamido)-bicyclo[3.2.0] heptane-6-carbox-amide]",5.65,–
"COc1ccc(-c2cc(C(OC(=O)Nc3ccccc3)C(=O)O)ccc2F)cc1C(=O)N[C@H]1[C@@H]2CCC[C@@H]2[C@H]1C(=O)Nc1ccc(F)c(C(F)(F)F)c1 (stereo partly drawn) [Example 7, 2-(6-fluoro-3′-(((1S,5R,6S,7R)-7-((4-fluoro-3-(trifluoromethyl)phenyl)carbamoyl)bicyclo[3.2.0]heptan-6-yl)carbamoyl)-4′-methoxy-[1,1′-biphenyl]-3-yl)-2-((phenylcarbamoyl)oxy) acetic acid]",7.92,–
Serelaxin,–,5.4
